“Also recorded” adds a separate entry of the source.
Columns and labels:
P. gingivalis vesicles = test: Invasion of P. gingivalis outer membrane vesicles into HOKs (confocal microscopy); conditions: for inhibitory efficiency on internalization of P. gingivalis vesicles (comparison of compounds): vs DMSO control; for reduction of the total number of HOKs with intracellular vesicles: vs HOKs unexposed to compound, P<0.001
Description: Human oral keratinocytes (HOKs) were purchased from ScienCell Research Laboratories (Carlsbad, CA) and cultured in specific media, according to the manufacturer's instructions. Prior to treatment, HOKs (2×10^4) were seeded and grown overnight in poly-L-lysine-coated 35 mm glass bottom dishes (MatTek Corporation) at 37° C., 5% CO2, then exposed to P. gingivalis 33277 (2×10^6) or its vesicles (100 ng) for 0 or proper experimental times. To examine the role of Alop1 and dynasore in the bacterial invasion, the compounds were added to the medium 10 min prior to infection.
HOKs were fixed with 3.8% formaldehyde in a sodium phosphate buffer at room temperature for 10 min after treatment, permeabilized with 0.1% Triton X-100 for 10 min, and blocked with 5% bovine serum albumin in PBS for 1 h. HOKs were then immunostained with pan-specific antibodies of P. gingivalis 33277, and α Tubulin or Actin mono-antibodies (Santa Cruz Biotechnology, Dallas, Texas), followed by goat anti-rabbit IgG conjugated to Alex Fluor 546 (Invitrogen). Nuclei were stained with DAPI (Invitrogen). Confocal images were acquired using a Nikon A1R confocal microscope.
For infection rate determination, the number of HOKs with intercellular P. gingivalis cells or its vesicles were determined and divided by the total number of HOKs by counting the cells in 30 random areas (5.6 μm×5.6 μm) under the confocal microscope. Moreover, fluorescence intensity was determined in 100 individual cells using imaging software NIS-Elements AR 4.20, which reflects the level of intercellular P. gingivalis and its vesicles in the infected HOKs.

P. gingivalis = conditions: literature [21]; cited from earlier work
actin in HOKs = test: Actin arrangement in HOKs (anti-actin staining, confocal microscopy); type: cell-based, human; conditions: treated for 0, 10, 30 min or 2 h
fimA = test: Gene expression in P. gingivalis (qRT-PCR); conditions: 30 μM, 16 h
P. gingivalis 33277 [1] = test: Invasion of P. gingivalis cells into HOKs (confocal microscopy); type: cell-based, Porphyromonas gingivalis; conditions: for P. gingivalis cell entry into HOKs: vs untreated HOKs
Source text: Nuclei were stained with DAPI (Invitrogen).

P. gingivalis 33277 [2] = test: Exit of intracellular P. gingivalis cells from HOKs; conditions: 30 μM, 20 h, with gentamicin and metronidazole
microtubules in HOKs = test: Microtubule arrangement in HOKs (anti-α-tubulin staining, confocal microscopy); type: cell-based, human; conditions: 30 μM
[3] = after removal of compounds from growth media

| Structure (SMILES) | inhibitory efficiency on internalization of P. gingivalis vesicles (comparison of compounds) (P. gingivalis vesicles; 30 μM, 2 h) | P. gingivalis invasion of epithelial cells (P. gingivalis) | reduction of the total number of HOKs with intracellular vesicles (P. gingivalis vesicles; 6 μM, 2 h) | fluorescence intensity of internalized vesicles in HOKs (P. gingivalis vesicles; 30 μM, 100 infected HOKs, vs non-exposed HOKs) | reduction of the total number of HOKs with intracellular vesicles (P. gingivalis vesicles; 30 μM, 2 h) | inhibitory activity on P. gingivalis vesicle invasion of HOKs, dose dependence (P. gingivalis vesicles; different doses, 2 h) | actin arrangement in HOKs (actin in HOKs) | expression of fimA (fimA) | host cell invasion by P. gingivalis (P. gingivalis 33277 [1]; at concentrations of 1.2, 6, and 30 μM in vitro) | P. gingivalis cell entry into HOKs (P. gingivalis 33277 [1]) | exit of intracellular P. gingivalis from HOKs (P. gingivalis 33277 [2]) | reversibility of the effect on microtubule arrangement (microtubules in HOKs; [3]) | start of recovery of microtubule arrangement after compound removal (microtubules in HOKs; [3]) | microtubule arrangement in HOKs (microtubules in HOKs; observed 30 min after treatment) |
| --- | --- | --- | --- | --- | --- | --- | --- | --- | --- | --- | --- | --- | --- | --- |
| C=C1[C@@H](C)[C@H]2[C@H](Cc3ccccc3)NC(=O)[C@]23[C@H](OC(C)=O)/C=C/[C@@](C)(O)C(=O)[C@@H](C)C/C=C/[C@H]3[C@@H]1O [cytochalasin D, reference compound] | significant inhibitory activity was not observed | inhibited P. gingivalis invasion of epithelial cells |  |  |  |  |  |  |  |  |  |  |  |  |
| O=C(N/N=C/c1ccc(O)c(O)c1)c1cc2ccccc2cc1O [dynasore] | highest efficiency |  | 40% | significantly lower fluorescence intensity | over 95% | dose-dependent manner | alteration of actin arrangement was not detected | specifically inhibited expression of fimA | inhibit host cell invasion | effectively block P. gingivalis cell entry into HOKs | no significant change in the fluorescence intensity; also recorded: able to block the bacterial exit from HOKs | reversible | 2 h | microtubules became more condensed and formed a cortical outer shell at the cell membrane |
| COC(=O)Nc1nc2ccc(C(=O)c3cccs3)cc2[nH]1 [nocodazole, reference compound] |  | inhibited P. gingivalis invasion of epithelial cells |  |  |  |  |  |  |  | effectively block P. gingivalis cell entry into HOKs |  |  |  |  |
